In this assay the target is DCN1 (DCUND1) protein PONY domain (Homo sapiens (Human), UniProt Q96GG9). Description: TR-FRET assay (binding to DCN-1, displacement of FAM-labeled probe). The procedure, abridged: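 Compounds read at 1, 5 and 24 h, 0.1% final DMSO, by TR-FRET between terbium-streptavidin on biotinylated DCN1 PONY domain (E. coli) and a FAM-tagged non-covalent inhibitor probe. Two setups used, 5 nM protein with 20 nM labelled probe, or 0.31 nM protein with 100 nM labelled plus 800 nM unlabelled probe; buffer had TritonX and 200 mM NaCl. % activity relative to high (with probe) and low (without probe) controls.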
Sequence of DCN1 (DCUND1) protein PONY domain (Q96GG9 60-248): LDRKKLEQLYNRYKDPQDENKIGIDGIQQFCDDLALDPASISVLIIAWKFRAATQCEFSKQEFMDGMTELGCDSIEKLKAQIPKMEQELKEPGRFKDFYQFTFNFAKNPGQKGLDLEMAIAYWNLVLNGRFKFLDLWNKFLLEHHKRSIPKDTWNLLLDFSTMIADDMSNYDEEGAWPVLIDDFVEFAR
(In general: TR-FRET usually uses a lanthanide donor and a delayed reading to cut background.)

Where [1] appears, read: 24 hr after treatment with compound, read-out: TR FRET IC50 24 hr.
[2] abbreviates: TR FRET IC50 1 hr (nM), 1 hr after treatment with compound.
Where [3] appears, read: read-out: TR FRET IC50 1 hr, 1 hr after treatment with compound.

Molecules are shown by their SMILES. Read-outs that look alike come from different tables or passages of the source.

Consider `CCN1C(=O)[C@@H](NC(=O)c2nccc(C(F)(F)F)n2)[C@H](c2cccc(NC(=O)/C=C/C(=O)N3CCCC3)c2)c2c(C)nn(-c3ccccc3)c21` (racemic) [Compound I-262], for which the 50% inhibitory concentration (IC50) was 1000 to 3000 nM under setting [1] and 1000 to 3000 nM under setting [2].
Take `C=C(CN1CCOCC1)C(=O)NCc1cccc([C@@H]2c3cnn(-c4ccccc4)c3N(CC)C(=O)[C@H]2NC(=O)c2ccn(C)n2)c1` (single isomer, unassigned) [Compound I-51]: the IC50 under setting [3] lay within 1000 to 3000 nM.
Turning to `CCN1C(=O)C(NC(=O)c2cccc(C(F)(F)F)c2)[C@@H](c2cccc(NC(=O)C(Cl)Cl)c2)c2c(C)nn(-c3ccccc3)c21` (stereo in doubt) [Compound I-42, N-((4S,5R)-4-(3-(2,2-dichloroacetamido)phenyl)-7-ethyl-3-methyl-6-oxo-1-phenyl-4,5,6,7-tetrahydro-1H-pyrazolo[3,4-b]pyridin-5-yl)-3-(trifluoromethyl)benzamide], the 50% inhibitory concentration (IC50) under setting [1] fell in the range of 1000 to 3000 nM and the IC50 under setting [3] is > 3000 nM.
As to `CCN1C(=O)[C@@H](NC(=O)c2cccc(C(F)(F)F)c2)[C@H](c2ccccc2CNC(=O)C(F)Cl)c2cnn(-c3ccccc3)c21` (mixture of isomers) [Compound I-105], the IC50 is, setting by setting: under setting [1], 1000 to 3000 nM; under setting [2], 1000 to 3000 nM.
With `C=C(C(=O)NCc1cccc([C@@H]2c3cnn(-c4ccccc4)c3N(CC)C(=O)[C@H]2NC(=O)c2cccc(C(F)F)c2)c1)C(C)N(C)C1COC1` (stereo partly drawn) [Compound I-277], the 50% inhibitory concentration (IC50) is ≤ 200 nM under setting [1] and ≤ 200 nM under setting [3].
On to `C=C(CN1CC2CC(C1)O2)C(=O)NCc1cccc([C@@H]2c3cnn(-c4ccccc4)c3N(CC)C(=O)[C@H]2NC(=O)c2ccn(C(F)(F)F)n2)c1` [Compound I-315], for which the IC50 is, setting by setting: under setting [1], ≤ 200 nM; under setting [3], ≤ 200 nM.
On to `C=C(CN1CC2CC1CO2)C(=O)NCc1cccc([C@H]2c3c(C)nn(-c4ccccc4)c3N(CC)C(=O)[C@@H]2NC(=O)c2cccc(C(F)(F)F)c2)c1` (stereo partly drawn) [Compound I-294], for which the IC50 is, setting by setting: under setting [1], ≤ 200 nM; under setting [2], 200 to 1000 nM.
The like results for `C=C(F)C(=O)Nc1cccc([C@H]2c3c(C)nn(-c4ccccc4)c3N(CC)C(=O)[C@@H]2NC(=O)c2cccc(C(F)(F)F)c2)c1` (racemic) [Compound I-140, N-((4S,5R)-7-ethyl-4-(3-(2-fluoroacrylamido)phenyl)-3-methyl-6-oxo-1-phenyl-4,5,6,7-tetrahydro-1H-pyrazolo[3,4-b]pyridin-5-yl)-3(trifluoromethyl) benzamide] were, in that order, > 3000 nM and > 3000 nM.
For the compound `C=C(CN1CC2(CCC2O)C1)C(=O)NCc1cccc([C@@H]2c3cnn(-c4ccccc4)c3N(CC)C(=O)[C@H]2NC(=O)c2cccc(C(F)(F)F)c2)c1` (stereo partly drawn) [Compound I-375], the 50% inhibitory concentration (IC50) is, setting by setting: under setting [1], ≤ 200 nM; under setting [3], ≤ 200 nM.
For the compound `C=C(CN1CCC12COC2)C(=O)NCc1cccc([C@@H]2c3cnn(-c4ccccc4)c3N(CC)C(=O)[C@H]2NC(=O)c2ccn(C(F)(F)F)n2)c1` [Compound I-247], the IC50 reads like this: under setting [1], ≤ 200 nM; under setting [2], 200 to 1000 nM.
Take `CCN1C(=O)[C@@H](NC(=O)c2cccc(C(F)(F)F)c2)[C@H](c2ccccc2CNC#N)c2cnn(-c3ccccc3)c21` (racemic) [Compound I-31]: the IC50 reads like this: under setting [1], 1000 to 3000 nM; under setting [2], 1000 to 3000 nM.
As to `CCN1C(=O)[C@@H](NC(=O)c2ccn(C(F)(F)F)n2)[C@H](c2cccc(NC(=O)C3=CCN(C)C3)c2)c2c(C)nn(-c3ccccc3)c21` [Compound I-323], the IC50 was ≤ 200 nM under setting [1] and 200 to 1000 nM under setting [2].
On the same counts, the results for `CCN1C(=O)[C@@H](NC(=O)c2cccc(C(F)(F)F)c2)[C@H](c2cccc(CNC/C=C/C(=O)N3CCCC3)c2)c2cnn(-c3ccccc3)c21` [Compound I-307] are 1000 to 3000 nM and 1000 to 3000 nM.
On the same counts, the results for `C=C(CO)C(=O)NCc1cccc([C@@H]2c3cnn(-c4ccccc4)c3N(CC)C(=O)[C@H]2NC(=O)c2cccc(C(F)(F)F)c2)c1` [Compound I-76] are 1000 to 3000 nM and 1000 to 3000 nM.
As for `C/C=C(\CN1CCOCC1)C(=O)N(C)Cc1cccc([C@@H]2c3cnn(-c4ccccc4)c3N(CC)C(=O)[C@H]2NC(=O)c2nccc(C(F)(F)F)n2)c1` [Compound I-326], the half-maximal inhibitory concentration (IC50) under setting [1] lay within 1000 to 3000 nM and the IC50 under setting [2] lay within 1000 to 3000 nM.
For `CCN1C(=O)[C@@H](NC(=O)c2cccc(C(F)(F)F)c2)[C@H](c2cccc(NC(=O)C3=CCC3)c2)c2c(C)nn(-c3ccccc3)c21` [Compound I-70, N-((4R,5S)-4-(3-(cyclobut-1-ene-1-carboxamido)phenyl)-7-ethyl-3-methyl-6-oxo-1-phenyl-4,5,6,7-tetrahydro-1H-pyrazolo[3,4-b]pyridin-5-yl)-3-(trifluoromethyl)benzamide], the IC50 was in the range of 200 to 1000 nM under setting [1] and 1000 to 3000 nM under setting [2].
For `C/C=C(/CN1CCN(C2COC2)CC1)C(=O)NCc1cccc([C@@H]2c3cnn(-c4ccccc4)c3N(CC)C(=O)[C@H]2NC(=O)c2nccc(C(F)(F)F)n2)c1` (racemic) [Compound I-257], the half-maximal inhibitory concentration (IC50) reads like this: under setting [1], 1000 to 3000 nM; under setting [2], 1000 to 3000 nM.
`C=CC(=O)NCc1cccc([C@@H]2c3cnn(-c4ccccc4)c3N(CC)C(=O)[C@H]2NC(=O)c2cccc(C(F)(F)F)c2)c1` (racemic) [Compound I-111]: the IC50 reads like this: under setting [1], 1000 to 3000 nM; under setting [2], 1000 to 3000 nM.
`CCN1C(=O)[C@H](NC(=O)c2cccc(C(F)(F)F)c2)[C@@H](c2cccc(NC(=O)C#CCN(C)C)c2)c2cnn(-c3ccccc3)c21` (racemic) [Compound I-132, rac-N-((4R,5S)-4-(3-(4-(dimethylamino)but-2-ynamido)phenyl)-7-ethyl-6-oxo-1-phenyl-4,5,6,7-tetrahydro-1H-pyrazolo[3,4-b]pyridin-5-yl)-3-(trifluoromethyl)benzamide]: the half-maximal inhibitory concentration (IC50) by setting is: under setting [1], 200 to 1000 nM; under setting [2], 200 to 1000 nM.
`C=C(CN1CC2CC(C1)O2)C(=O)NCc1cccc([C@@H]2c3cnn(-c4ccccc4)c3N(CC)C(=O)[C@H]2NC(=O)c2nccc(C(F)(F)F)n2)c1` [Compound I-346]: the half-maximal inhibitory concentration (IC50) is, setting by setting: under setting [1], ≤ 200 nM; under setting [3], ≤ 200 nM.
Consider `C=C(C(=O)NCc1cccc([C@@H]2c3cnn(-c4ccccc4)c3N(CC)C(=O)[C@H]2NC(=O)c2csc(C(F)(F)F)n2)c1)C(C(C)C)N(C)C1COC1` (stereo partly drawn) [Compound I-352], for which the IC50 reads like this: under setting [1], ≤ 200 nM; under setting [3], ≤ 200 nM.
Turning to `C=C(CN1CC2(COC2)C1)C(=O)NCc1cccc([C@@H]2c3cnn(-c4ccccc4)c3N(CC)C(=O)[C@H]2NC(=O)c2nccc(C(F)(F)F)n2)c1` [Compound I-161], the IC50 is, setting by setting: under setting [1], ≤ 200 nM; under setting [3], ≤ 200 nM.
With `C=C(C(=O)NCc1cccc([C@@H]2c3cnn(-c4ccccc4)c3N(CC)C(=O)[C@H]2NC(=O)c2ccn(C3CC3)n2)c1)C(C)N1CCC12COC2` (stereo partly drawn) [Compound I-325], the 50% inhibitory concentration (IC50) under setting [2] lay in the range of 200 to 1000 nM.
As to `CCN1C(=O)[C@@H](NC(=O)c2nccc(C(F)(F)F)n2)[C@H](c2cccc(C(=O)N3CCC[C@@H]3C#N)c2)c2cnn(-c3ccccc3)c21` (mixture of isomers) [Compound I-250], the IC50 under setting [1] is 1000 to 3000 nM and the 50% inhibitory concentration (IC50) under setting [2] lay in the range of 1000 to 3000 nM.
In the case of `C=C(CN1CC2(CCOC2)C1)C(=O)NCc1cccc([C@@H]2c3cnn(-c4ccccc4)c3N(CC)C(=O)[C@H]2NC(=O)c2cccc(C(F)(F)F)c2)c1` [Compound I-12], the IC50 by setting is: under setting [1], ≤ 200 nM; under setting [3], ≤ 200 nM.
`CC#CC(=O)N(C)c1ccccc1[C@H]1c2cnn(-c3ccccc3)c2N(CC)C(=O)[C@@H]1NC(=O)c1cccc(C(F)(F)F)c1` (racemic) [Compound I-98, ˜{N}—[˜{rac}-(4˜{S},5˜{R})-4-[2-[but-2-ynoyl(methyl)amino]phenyl]-7-ethyl-6-oxo-1-phenyl-4,5-dihydropyrazolo[3,4-b]pyridin-5-yl]-3-(trifluoromethyl)benzamide]: the half-inhibitory concentration (IC50) is, setting by setting: under setting [1], 1000 to 3000 nM; under setting [2], 1000 to 3000 nM.
As to `C=C(CN1CC2CC(C1)O2)C(=O)N(C)Cc1cccc([C@@H]2c3cnn(-c4ccccc4)c3N(CC)C(=O)[C@H]2NC(=O)c2ccn(C(F)(F)F)n2)c1` [Compound I-253], the concentration for half-maximal inhibition (IC50) reads like this: under setting [1], ≤ 200 nM; under setting [2], 1000 to 3000 nM.
Take `CCN1C(=O)[C@@H](NC(=O)c2cccc(C(F)(F)F)c2)[C@H](c2cc(NC(=O)/C=C/CN(C)C)ccc2F)c2cnn(-c3ccccc3)c21` (racemic) [Compound I-79]: the IC50 by setting is: under setting [1], 200 to 1000 nM; under setting [2], 1000 to 3000 nM.
On the same counts, the results for `CCN1C(=O)[C@H](NC(=O)c2cccc(C(F)(F)F)c2)[C@@H](c2cccc(CNC(=O)/C(C)=C/C(=O)OC)c2)c2cnn(-c3ccccc3)c21` [Compound I-125] are 1000 to 3000 nM and 1000 to 3000 nM.
Turning to `CCN1C(=O)[C@H](NC(=O)c2cccc(C(F)(F)F)c2)[C@@H](c2cccc(CNC(=O)C3=CCN(C)C3)c2)c2cnn(-c3ccccc3)c21` [Compound I-128], the IC50 reads like this: under setting [1], 1000 to 3000 nM; under setting [2], 1000 to 3000 nM.
In the case of `C=C(CN1CCOCC1)C(=O)NCc1ccccc1[C@@H]1c2cnn(-c3ccccc3)c2N(CC)C(=O)[C@H]1NC(=O)c1cccc(C(F)(F)F)c1` (racemic) [Compound I-153], the IC50 under setting [1] was ≤ 200 nM and the IC50 under setting [3] was ≤ 200 nM.
Turning to `C/C=C(\CN1CCC1)C(=O)Nc1cccc([C@@H]2c3cnn(-c4ccccc4)c3N(CC)C(=O)[C@H]2NC(=O)c2nccc(C(F)(F)F)n2)c1` [Compound I-367], the IC50 reads like this: under setting [1], ≤ 200 nM; under setting [2], 1000 to 3000 nM.
As to `C=C(CN1CCC12COC2)C(=O)NCc1cccc([C@@H]2c3cnn(-c4ccccc4)c3N(CC)C(=O)[C@H]2NC(=O)c2cccc(C(F)(F)F)c2)c1` [Compound I-332], the IC50 runs as follows: under setting [1], ≤ 200 nM; under setting [3], ≤ 200 nM.
In the case of `CCN1C(=O)[C@@H](NC(=O)c2cccc(C(F)(F)F)c2)[C@H](c2ccccc2CNC(=O)/C=C/CN(C)C)c2cnn(-c3ccccc3)c21` (racemic) [Compound I-120], the IC50 under setting [1] was 1000 to 3000 nM and the IC50 under setting [2] lay within 1000 to 3000 nM.

One may read the IC50 as the midpoint of a concentration-inhibition curve.

For the origin of these results see patent US12435087B2, “Modulators of DCN-1 and methods of use thereof” (Cellarity, Inc., priority 2023, dated 2025).
